Laboratory results from patent publication US20110014185A1, “METHODS INVOLVING GRAF POLYPEPTIDES” (priority 2008, published 2011).
Entries after “also recorded” stand apart in the source; their conditions may differ.

Assays:
[1] = system: GRAF1 BAR+PH overexpressing cells; assay: localisation of overexpressed GFP-tagged GRAF1 BAR+PH protein, confocal microscopy; type: cell-based; conditions: 1 uM nocodazole for 1 hr
Source text: FIG. 9 Membrane tubules generated by the GRAF1 BAR+PH domain in vivo are mobile structures dependent upon microtubules. a, Representative Coomassie-stained gel of a typical liposome co-sedimentation assay with GST-tagged BAR+PH and liposomes of different diameters quantified in FIG. 2a (P=pellet, S=supernatant). b, Confocal micrographs showing the tubular localisation of overexpressed myc-tagged BAR+PH protein in HeLa cells and the cytoplasmic localisation of a similarly overexpressed protein with a BAR domain mutation (KK131/132EE). Scale bars=10 um. c, Electron micrographs of negatively-stained liposomes incubated in the presence or absence of GST-tagged GRAF1 BAR+PH protein. Note the presence of tubular structures present with BAR+PH protein and their absence in the control incubation. Scale bars=200 nm. d, Confocal micrographs of cells overexpressing GFP-tagged GRAF1 BAR+PH protein left untreated (Panel 1) or treated with 1 uM nocodazole for 1 hr and fixed immediately (Panel 2) or left to recover for 30 mins after nocodazole washout (Panel 3). Cells were then stained for beta-tubulin (lower images). GRAF1 BAR+PH-positive tubular structures were not present in nocodazole treated cells but recovered after nocodazole washout where they are observed to colocalise with beta-tubulin. e, Live cell spinning disc confocal imaging of a GFP-tagged GRAF1 BAR+PHover expressing cell at 20° C. […]

HeLa cells [2] = assay: GRAF1 localisation by immunofluorescent staining; type: cell-based, human; conditions: for colocalisation of GRAF1 with focal complex markers / number of GRAF1-positive tubules: 40 uM Y-27632 for 40 minutes
Procedure: FIG. 8 GRAF1 mediated trafficking is dependent upon dynamin and small G-proteins. a, HeLa cells incubated either with medium including vehicle (DMSO) or 50 um dynasore for 15 minutes before addition of dextran to these, cells for a further 15 minutes, (with DMSO/dynasore concentrations being retained throughout), before fixation and staining for GRAF1, dextran and paxillin. […] Note the absence of GRAF1-positive tubules in transfected cells. Scale bars=10 um. […] Note that endogenous GRAF1 tubes originate from within rings of beta1-integrins (a). […] Protein expression and purification Antibodies and constructs used are described in supplemental methods. Recombinant proteins were expressed in a BL21 (DE3) pLysS E-coli strain as Glutathione Stransferase (GST)-fusion proteins and purified using glutathione-Sepharose 4B beads (Amersham Biosciences) and gel filtration on a sephacryl S-200 column (Amersham) as previously described27. For analysis of endogenous protein expression, cell lines were grown according to instructions from American Tissue Culture Collection, harvested and lysed in 1% NP-40 in PBS supplemented with protease inhibitors. After a 20,000 g centrifugation the supernatant was analysed by SDS-PAGE and immunoblotting. Protein and lipid interaction assays Liposomes from total brain lipids (FOLCH fraction I) (Sigma Aldrich), from synthetic lipids (Avanti Polar Lipids), and liposomes of a specified diameter were generated as previously described10. Liposome binding assays for lipid specificity and curvature sensitivity was performed as previously described10. Briefly, proteins were incubated together with liposomes followed by centrifugation and analysis of the pellet and supernatant by SDS-PAGE and Coomassie staining. For immunoprecipitation experiments, rat brain cytosol was generated by homogenisation of rat brains in buffer (25 mM HEPES, 150 mM NaCl, 1 mM DTT, 0.1% Triton X-100 and protease inhibitors), before centrifugation at 50,000 rpm for 30 mins at 4i ? C. The supernatant was removed and added to protein A Sephorose 4B beads (Amersham Biosciensis) to which antibodies had been previously bound and incubated at 4° C. for 3 hrs. Beads were washed three times in buffer (25 mM HEPES, 150 mM NaCl) supplemented with 1% NP-40, and once in buffer without NP-40 before analysis by SDS-PAGE combined with immunoblotting or Coomassie staining. Pull-down experiments against rat brain cytosol using purified proteins and identification by mass-spectrometry were performed as previously described27. In vitro liposome tubulation assays were performed and analysed as previously described 10. Cell culture and transfections HeLa cells were grown in RPM1 1640 media (GIBCO) supplemented with L-Glutamine and 10% fetal bovine serum and transfected using Genejuice (Novagen) for transient protein expression. For primary cultures, rat hippocampal neurons/astrocytes were prepared by trypsin digestion and mechanical trituration from E18 or P1 Sprague-Dawley rats and plated onto poly L-lysine coated coverslips. Cells were cultured in B27-supplemented Neurobasal media. For GRAF1 depletion, HeLa cells were transfected with stealth siRNAs specific against human GRAF1 (Invitrogen) using Lipofectamine 2000 (Invitrogen) according to manufacturers instructions. Cells were cultured for an additional 48 hrs for efficient silencing of the GRAF1 expression. Stealth Block-it siRNA (Invitrogen) was used as a control. AP2 siRNA was used as previously described28. […]

[3] = acute ischaemic stroke; cited from earlier work
HeLa cells [4] = assay: tubular dextran uptake by immunofluorescence; type: cell-based, human; conditions: 50 um dynasore 15 minutes before dextran, further 15 minutes
Procedure: FIG. 8 GRAF1 mediated trafficking is dependent upon dynamin and small G-proteins. a, HeLa cells incubated either with medium including vehicle (DMSO) or 50 um dynasore for 15 minutes before addition of dextran to these, cells for a further 15 minutes, (with DMSO/dynasore concentrations being retained throughout), before fixation and staining for GRAF1, dextran and paxillin. […] Note the absence of GRAF1-positive tubules in transfected cells. Scale bars=10 um.
Protein expression and purification Antibodies and constructs used are described in supplemental methods. Recombinant proteins were expressed in a BL21 (DE3) pLysS E-coli strain as Glutathione Stransferase (GST)-fusion proteins and purified using glutathione-Sepharose 4B beads (Amersham Biosciences) and gel filtration on a sephacryl S-200 column (Amersham) as previously described27. For analysis of endogenous protein expression, cell lines were grown according to instructions from American Tissue Culture Collection, harvested and lysed in 1% NP-40 in PBS supplemented with protease inhibitors. After a 20,000 g centrifugation the supernatant was analysed by SDS-PAGE and immunoblotting. […] In vitro liposome tubulation assays were performed and analysed as previously described 10. […]

COC(=O)Nc1nc2ccc(C(=O)c3cccs3)cc2[nH]1 [nocodazole]
GRAF1 BAR+PH-positive tubular structures [1]: not present; also recorded: abolishes the tubular localisation

C[C@@H](N)[C@H]1CC[C@H](C(=O)Nc2ccncc2)CC1 [Y-27632]
colocalisation of GRAF1 with focal complex markers (HeLa cells [2]): vinculin is found mostly in focal complexes where it co-localises with GRAF1
number of GRAF1-positive tubules (HeLa cells [2]): increases the number of GRAF1-positive tubules
colocalisation of GRAF1 with focal complex markers (HeLa cells [2]; listed as Rho kinase inhibitor): increased the colocalisation of GRAF1 with 1-integrin, vinculin and dynamin
number of GRAF1-positive tubules (HeLa cells [2]; listed as Rho kinase inhibitor): dramatically increased the numbers of GRAF1-positive tubules

O=S(=O)(c1cccc2cnccc12)N1CCCNCC1 [fasudil]
toxicity in clinical trials [3]: non-toxic

O=C(N/N=C/c1ccc(O)c(O)c1)c1cc2ccccc2cc1O [dynasore]
tubular dextran uptake (HeLa cells [4]): loss of tubular endocytosis through the CLIC/GEEC pathway; also recorded: profound reduction in tubular dextran uptake; also recorded: profoundly reduced ability to endocytose dextran in tubular structures
GRAF1-positive tubular structures / GRAF1 distribution (HeLa cells [2]; 50 um dynasore): redistribute from tubular endocytic membranes to basal complexes; also recorded: reduction in GRAF1-positive tubular structures; also recorded: redistributed in these cells from tubular structures to basal punctae and rings
